Results from ChEMBL document CHEMBL4190168 (Medchemcomm, 2016).

Tested on: not listed separately
Test: Solubility of the compound in water
Assay type: physicochemical
Details: not given
With `CC(C)c1nc(CNCCCCCCNCc2cc3c4ccccc4n(Cc4ccccc4)c3c(C(C)C)n2)cc2c3ccccc3n(Cc3ccccc3)c12.Cl` the solubility was > 10000 µg/mL.
With `Cl.c1ccc(Cn2c3ccccc3c3cc(CNCCCNCc4cc5c6ccccc6n(Cc6ccccc6)c5c(-c5ccccc5)n4)nc(-c4ccccc4)c32)cc1` the solubility was > 10000 µg/mL.
With `COc1ccc(-c2nc(CNCCCCCNCc3cc4c5ccccc5n(Cc5ccccc5)c4c(-c4ccc(OC)cc4)n3)cc3c4ccccc4n(Cc4ccccc4)c23)cc1.Cl` the solubility was > 10000 µg/mL.
In the case of `Cl.Cn1c2ccccc2c2cc(CNCCCCCCNCc3cc4c5ccccc5n(C)c4c(-c4ccccc4)n3)nc(-c3ccccc3)c21`, the solubility is reported as > 10000 µg/mL.
With `Cc1nc(CNCCCNCc2cc3c4ccccc4n(Cc4ccccc4)c3c(C)n2)cc2c3ccccc3n(Cc3ccccc3)c12.Cl` the solubility was > 10000 µg/mL.
For `CCCCn1c2ccccc2c2cc(CNCCCCNCc3cc4c5ccccc5n(CCCC)c4c(C(C)C)n3)nc(C(C)C)c21.Cl`, the solubility was > 10000 µg/mL.

Tested on: EA.hy 926
Test: Antiproliferative activity against human EAhy926 cells after 48 hrs by MTT assay
Assay type: functional, cell-based
Details: EA.hy 926, 48 h
In the case of `CCCCn1c2ccccc2c2cc(C=O)nc(-c3ccc(Cl)cc3)c21`, the IC50 is reported as > 100 µM.
For `c1ccc(Cn2c3ccccc3c3cc(CNCCCNCc4cc5c6ccccc6n(Cc6ccccc6)c5c(-c5ccccc5)n4)nc(-c4ccccc4)c32)cc1`, the IC50 was > 20 µM.
For `Cn1c2ccccc2c2cc(CNCCCCCCNCc3cc4c5ccccc5n(C)c4c(-c4ccccc4)n3)nc(-c3ccccc3)c21`, the IC50 was 1.61 µM.
`Cc1nc(CNCCCCNCc2cc3c4ccccc4n(CC(C)C)c3c(C)n2)cc2c3ccccc3n(CC(C)C)c12` gave an IC50 of 2.56 µM.
`COc1ccc(-c2nc(CNCCCCNCc3cc4c5ccccc5n(C)c4c(-c4ccc(OC)cc4)n3)cc3c4ccccc4n(C)c23)cc1` gave an IC50 of 2.94 µM.
For `CC(C)c1nc(CNCCCCCNCc2cc3c([nH]c4ccccc43)c(C(C)C)n2)cc2c1[nH]c1ccccc12`, the IC50 was > 20 µM.
For `Cc1nc(CNCCCNCc2cc3c4ccccc4n(Cc4ccccc4)c3c(C)n2)cc2c3ccccc3n(Cc3ccccc3)c12`, the IC50 was 15.3 µM.
Work on `Cc1nc(CNCCCNCc2cc3c4ccccc4n(CC(C)C)c3c(C)n2)cc2c3ccccc3n(CC(C)C)c12` yielded an IC50 of 11.8 µM.
`Clc1ccc(-c2nc(CNCCCCCNCc3cc4c5ccccc5n(Cc5ccccc5)c4c(-c4ccc(Cl)cc4)n3)cc3c4ccccc4n(Cc4ccccc4)c23)cc1` gave an IC50 of 4.32 µM.
In the case of `Cc1nc(C=O)cc2c3ccccc3n(Cc3cccc(Cl)c3)c12`, the IC50 is reported as > 100 µM.
`CCCCn1c2ccccc2c2cc(CNCCCCNCc3cc4c5ccccc5n(CCCC)c4c(C(C)C)n3)nc(C(C)C)c21` showed an IC50 of 2.38 µM.
With `COc1ccc(-c2nc(CNCCCCCNCc3cc4c5ccccc5n(C)c4c(-c4ccc(OC)cc4)n3)cc3c4ccccc4n(C)c23)cc1` the IC50 was 1.1 µM.
Work on `Cn1c2ccccc2c2cc(CNCCCCNCc3cc4c5ccccc5n(C)c4c(-c4ccccc4)n3)nc(-c3ccccc3)c21` yielded an IC50 of 2.47 µM.
In the case of `Cc1nc(C=O)cc2c3ccccc3n(CCCc3ccccc3)c12`, the IC50 is reported as > 100 µM.
In the case of `CC(C)c1nc(CNCCCCCCNCc2cc3c4ccccc4n(Cc4ccccc4)c3c(C(C)C)n2)cc2c3ccccc3n(Cc3ccccc3)c12`, the IC50 is reported as 2.03 µM.
In the case of `Cc1nc(C=O)cc2c3ccccc3n(Cc3ccccc3)c12`, the IC50 is reported as > 100 µM.
`COc1ccc(-c2nc(CNCCCCCNCc3cc4c5ccccc5n(Cc5ccccc5)c4c(-c4ccc(OC)cc4)n3)cc3c4ccccc4n(Cc4ccccc4)c23)cc1` showed an IC50 of 3.88 µM.
`CCCCCCn1c2ccccc2c2cc(CNCCCCCCNCc3cc4c5ccccc5n(CCCCCC)c4c(-c4ccc(OC)cc4)n3)nc(-c3ccc(OC)cc3)c21` gave an IC50 of 4.25 µM.
With `Cc1nc(CNCCCCNCc2cc3c4ccccc4n(C)c3c(C)n2)cc2c3ccccc3n(C)c12` the IC50 was 2.76 µM.
`COc1ccc(-c2nc(CNCCCCNCc3cc4c([nH]c5ccccc54)c(-c4ccc(OC)cc4)n3)cc3c2[nH]c2ccccc23)cc1` showed an IC50 of 10.3 µM.
For `COc1cc(-c2nc(C=O)cc3c4ccccc4n(CCCc4ccccc4)c23)cc(OC)c1OC`, the IC50 was > 100 µM.
In the case of `CCCCn1c2ccccc2c2cc(CNCCCCNCc3cc4c5ccccc5n(CCCC)c4c(-c4ccc(Cl)cc4)n3)nc(-c3ccc(Cl)cc3)c21`, the IC50 is reported as 4.85 µM.
For `Cc1nc(CNCCCCCCNCc2cc3c4ccccc4n(C)c3c(C)n2)cc2c3ccccc3n(C)c12`, the IC50 was 1.85 µM.
In the case of `CCCCCCn1c2ccccc2c2cc(C=O)nc(-c3ccc(OC)cc3)c21`, the IC50 is reported as > 100 µM.
With `CCCCn1c2ccccc2c2cc(C=O)nc(C)c21` the IC50 was > 100 µM.
`Cc1nc(CNCCCCNCc2cc3c4ccccc4n(Cc4ccccc4)c3c(C)n2)cc2c3ccccc3n(Cc3ccccc3)c12` gave an IC50 of 3.18 µM.
For `CC(C)c1nc(C=O)cc2c1[nH]c1ccccc12`, the IC50 was > 100 µM.
With `COc1ccc(-c2nc(C=O)cc3c2[nH]c2ccccc23)cc1` the IC50 was > 100 µM.
For `Cc1nc(C=O)cc2c3ccccc3n(CC(C)C)c12`, the IC50 was > 100 µM.
For `O=Cc1cc2c3ccccc3n(Cc3ccccc3)c2c(-c2ccccc2)n1`, the IC50 was > 100 µM.
Molecule `COc1ccc(/C=C\c2cc(OC)c(OC)c(OC)c2)cc1OP(=O)(O)O` [FOSBRETABULIN] has an IC50 of 6.4 µM.
`Cc1nc(CNCCCNCc2cc3c4ccccc4n(CCCc4ccccc4)c3c(C)n2)cc2c3ccccc3n(CCCc3ccccc3)c12` showed an IC50 of 9.87 µM.
With `COc1ccc(-c2nc(CNCCCCCCNCc3cc4c5ccccc5n(Cc5ccccc5)c4c(-c4ccc(OC)cc4)n3)cc3c4ccccc4n(Cc4ccccc4)c23)cc1` the IC50 was 4.4 µM.
In the case of `CC(C)c1nc(CNCCCNCc2cc3c4ccccc4n(Cc4ccccc4)c3c(C(C)C)n2)cc2c3ccccc3n(Cc3ccccc3)c12`, the IC50 is reported as 13.5 µM.
`Clc1ccc(-c2nc(CNCCCCCCNCc3cc4c5ccccc5n(Cc5ccccc5)c4c(-c4ccc(Cl)cc4)n3)cc3c4ccccc4n(Cc4ccccc4)c23)cc1` gave an IC50 of 3.63 µM.
In the case of `Cn1c2ccccc2c2cc(C=O)nc(-c3ccccc3)c21`, the IC50 is reported as > 100 µM.
In the case of `COc1ccc(-c2nc(C=O)cc3c4ccccc4n(-c4ccccc4)c23)cc1`, the IC50 is reported as > 100 µM.
In the case of `Cc1nc(C=O)cc2c3ccccc3n(C(C)C)c12`, the IC50 is reported as > 100 µM.
`CCn1c2ccccc2c2cc(CNCCCNCc3cc4c5ccccc5n(CC)c4c(-c4cc(OC)c(OC)c(OC)c4)n3)nc(-c3cc(OC)c(OC)c(OC)c3)c21` showed an IC50 of 13.4 µM.
With `CCCCn1c2ccccc2c2cc(CNCCCNCc3cc4c5ccccc5n(CCCC)c4c(-c4ccc(Cl)cc4)n3)nc(-c3ccc(Cl)cc3)c21` the IC50 was > 20 µM.
Work on `CCCCn1c2ccccc2c2cc(CNCCCCCNCc3cc4c5ccccc5n(CCCC)c4c(C(C)C)n3)nc(C(C)C)c21` yielded an IC50 of 1.4 µM.
With `CC(C)c1nc(C=O)cc2c3ccccc3n(Cc3ccccc3)c12` the IC50 was > 100 µM.
Work on `Cc1nc(CNCCCCNCc2cc3c4ccccc4n(C(C)C)c3c(C)n2)cc2c3ccccc3n(C(C)C)c12` yielded an IC50 of 1.28 µM.
In the case of `COc1cc(-c2nc(CNCCCCCCNCc3cc4c5ccccc5n(CCCc5ccccc5)c4c(-c4cc(OC)c(OC)c(OC)c4)n3)cc3c4ccccc4n(CCCc4ccccc4)c23)cc(OC)c1OC`, the IC50 is reported as 1.69 µM.
For `COc1ccc(-c2nc(C=O)cc3c4ccccc4n(C)c23)cc1`, the IC50 was > 100 µM.
For `Cc1nc(C=O)cc2c3ccccc3n(C)c12`, the IC50 was > 100 µM.
In the case of `CCCCn1c2ccccc2c2cc(C=O)nc(C(C)C)c21`, the IC50 is reported as > 100 µM.
With `CCCCn1c2ccccc2c2cc(CNCCCCNCc3cc4c5ccccc5n(CCCC)c4c(C)n3)nc(C)c21` the IC50 was 1.69 µM.
In the case of `O=Cc1cc2c3ccccc3n(Cc3ccccc3)c2c(-c2ccc(Cl)cc2)n1`, the IC50 is reported as > 100 µM.
In the case of `CCn1c2ccccc2c2cc(C=O)nc(-c3cc(OC)c(OC)c(OC)c3)c21`, the IC50 is reported as > 100 µM.
Molecule `c1ccc(Cn2c3ccccc3c3cc(CNCCCCCCNCc4cc5c6ccccc6n(Cc6ccccc6)c5c(-c5ccccc5)n4)nc(-c4ccccc4)c32)cc1` has an IC50 of 8.09 µM.
`Cc1nc(CNCCCNCc2cc3c4ccccc4n(Cc4cccc(Cl)c4)c3c(C)n2)cc2c3ccccc3n(Cc3cccc(Cl)c3)c12` gave an IC50 of 11.1 µM.
